Here are results for 24 compounds from patent US10543212B2, “Substituted amines for treating cardiac diseases” (Cardurion Pharmaceuticals, LLC, priority 2017, dated 2020).

For orientation: IC50 means the concentration needed to halve the response being measured.

Each structure is given as a SMILES string. Some results are limits rather than exact numbers.

The target in one assay is T1, Full-length, GST-tagged, human CaMKIIδ (Homo sapiens, UniProt Q13557).
T1 construct: Full-Length, Glutathione-S-Transferase(GST)-Tagged, Human CaMKIIδ was purchased from Carna Biosciences; purchased Carna Biosciences 02-111
T1 sequence (Q13557 1-478 isoform Q13557-12): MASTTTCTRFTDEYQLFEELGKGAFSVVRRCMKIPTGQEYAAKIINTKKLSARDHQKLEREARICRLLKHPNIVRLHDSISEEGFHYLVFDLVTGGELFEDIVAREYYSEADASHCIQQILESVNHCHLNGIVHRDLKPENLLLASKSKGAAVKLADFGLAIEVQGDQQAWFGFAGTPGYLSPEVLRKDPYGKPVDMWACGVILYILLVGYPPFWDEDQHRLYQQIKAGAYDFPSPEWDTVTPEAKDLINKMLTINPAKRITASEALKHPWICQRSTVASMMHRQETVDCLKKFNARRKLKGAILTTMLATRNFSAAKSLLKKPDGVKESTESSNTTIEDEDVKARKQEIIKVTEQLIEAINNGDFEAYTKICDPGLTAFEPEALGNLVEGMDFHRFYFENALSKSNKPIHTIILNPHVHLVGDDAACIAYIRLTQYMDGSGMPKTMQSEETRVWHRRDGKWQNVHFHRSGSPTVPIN
The assay is described as follows: CaMKIIδ binding assay (TR-FRET with BODIPY-labeled probe ligand). Conditions: CaMKIIδ binding assay, results of Table 2. The essentials:
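Compounds were tested as 4-fold, eight-point series for 1 hr at room temperature, and IC50 was obtained by logistic fitting against a 3 μM parent-compound control. Signal came from displacement of a 300 nM BODIPY ligand from 0.5 nM GST-CaMKIIδ, detected via Tb-anti-GST in calmodulin/Ca2+ (pH 7.6).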
In general terms: Time-resolved FRET reads energy transfer from a long-lived donor to a nearby acceptor.
In the case of `COc1cc2c(cc1Nc1ncc(-c3ccc(Cl)c(O[C@@H](C)Cn4cnnn4)c3)cn1)CCN(CC(=O)O)C2` [Example 506, (S)-2-(6-((5-(3-((1-(1H-tetrazol-1-yl)propan-2-yl)oxy)-4-chlorophenyl)pyrimidin-2-yl)amino)-7-methoxy-3,4-dihydroisoquinolin-2(1H)-yl)acetic acid], the 50% inhibitory concentration (IC50) is less than 10 nM.

`COc1cc2c(cc1Nc1ncc(-c3ccc(Cl)c(O[C@@H](C)Cn4cnnn4)c3)cn1)N(CC1COC1)CC2` [Example 503, (S)-N-(5-(3-((1-(1H-tetrazol-1-yl)propan-2-yl)oxy)-4-chlorophenyl)pyrimidin-2-yl)-5-methoxy-1-(oxetan-3-ylmethyl)indolin-6-amine] yielded a 50% inhibitory concentration (IC50) of 10 to 100 nM.

The compound `COCCN1CCc2cc(Nc3ncc(-c4ccc(Cl)c(O[C@@H](C)Cn5cnnn5)c4)cn3)c(OC)cc2C1` [Example 492, (S)-N-(5-(3-((1-(1H-tetrazol-1-yl)propan-2-yl)oxy)-4-chlorophenyl)pyrimidin-2-yl)-7-methoxy-2-(2-methoxyethyl)-1,2,3,4-tetrahydroisoquinolin-6-amine] had a half-maximal inhibitory concentration (IC50) of less than 10 nM. In the case of `COc1cc2c(cc1Nc1ncc(-c3ccc(Cl)c(O[C@@H](C)Cn4cnnn4)c3)cn1)CCN(C1CCOCC1)C2` [Example 474, (S)-N-(5-(3-((1-(1H-tetrazol-1-yl)propan-2-yl)oxy)-4-chlorophenyl)pyrimidin-2-yl)-7-methoxy-2-(tetrahydro-2H-pyran-4-yl)-1,2,3,4-tetrahydroisoquinolin-6-amine], the IC50 is less than 10 nM.

`COc1ccc(N2CCC(N3CCOCC3)CC2)cc1Nc1ncc(-c2ccc(C#N)c(O[C@@H](C)COC(F)F)c2)cn1` [Example 495, (S)-2-((1-(difluoromethoxy)propan-2-yl)oxy)-4-(2-((2-methoxy-5-(4-morpholinopiperidin-1-yl)phenyl)amino)pyrimidin-5-yl)benzonitrile] gave an IC50 of 10 to 100 nM. On the same count and under the same terms, to `C[C@@H](Cn1cnnn1)Oc1cc(-c2cnc(Nc3cn(C4CCN(C5CCS(=O)(=O)CC5)CC4)nc3C(F)(F)F)nc2)ccc1Cl` [Example 565, (S)-4-(4-(4-((5-(3-((1-(1H-tetrazol-1-yl)propan-2-yl)oxy)-4-chlorophenyl)pyrimidin-2-yl)amino)-3-(trifluoromethyl)-1H-pyrazol-1-yl)piperidin-1-yl)tetrahydro-2H-thiopyran 1,1-dioxide] belongs less than 10 nM.

The assay is the same for the next values; noted with them: CaMKIIδ binding assay; activity class per Table 2.
As to `CC(Cn1cnnn1)Oc1cc(-c2cnc(Nc3cn(CC4(O)CCC(N5CCOCC5)CC4)nc3OCC(F)(F)F)nc2)ccc1Cl` [Example 912, cis-1-((4-((5-(3-(((S)-1-(1H-tetrazol-1-yl)propan-2-yl)oxy)-4-chlorophenyl)pyrimidin-2-yl)amino)-3-(2,2,2-trifluoroethoxy)-1H-pyrazol-1-yl)methyl)-4-morpholinocyclohexan-1-ol], the IC50 is less than 10 nM. Still for that read-out and setting: as for `C[C@@H](Cn1cnnn1)Oc1cc(-c2cnc(Nc3cn(C4CC5(C4)CN(C4CCC4)C5)nc3C(F)(F)F)nc2)ccc1Cl` [Example 921, (S)-5-(3-((1-(1H-tetrazol-1-yl)propan-2-yl)oxy)-4-chlorophenyl)-N-(1-(2-cyclobutyl-2-azaspiro[3.3]heptan-6-yl)-3-(trifluoromethyl)-1H-pyrazol-4-yl)pyrimidin-2-amine], the figure is less than 10 nM. Same read-out and setting: to `C[C@@H](Cn1cnnn1)Oc1cc(-c2cnc(Nc3cn(C4(C(N)=O)CCC4)nc3OCC(F)(F)F)nc2)ccc1Cl` [Example 917, (S)-1-(4-((5-(3-((1-(1H-tetrazol-1-yl)propan-2-yl)oxy)-4-chlorophenyl)pyrimidin-2-yl)amino)-3-(2,2,2-trifluoroethoxy)-1H-pyrazol-1-yl)cyclobutane-1-carboxamide] belongs less than 10 nM; to `[2H]C1(N2CC3(CC(n4cc(Nc5ncc(-c6ccc(Cl)c(O[C@@H](C)Cn7cnnn7)c6)cn5)c(OCC(F)(F)F)n4)C3)C2)CCOCC1` [Example 944, 5-(4-chloro-3-{[(2S)-1-(1H-tetrazol-1-yl)propan-2-yl]oxy}phenyl)-N-(1-{2-[(4-^2H)tetrahydro-2H-pyran-4-yl]-2-azaspiro[3.3]heptan-6-yl}-3-(2,2,2-trifluoroethoxy)-1H-pyrazol-4-yl)pyrimidin-2-amine], less than 10 nM.

Still in this assay, the particulars now being: Table 2; CaMKIIδ binding assay, activity given as class A/B/C.
Turning to `CC(=O)NCCn1cc(Nc2ncc(-c3ccc(Cl)c(O[C@@H](C)Cn4cnnn4)c3)cn2)c(C(F)(F)F)n1` [Example 846, (S)-N-(2-(4-((5-(3-((1-(1H-tetrazol-1-yl)propan-2-yl)oxy)-4-chlorophenyl)pyrimidin-2-yl)amino)-3-(trifluoromethyl)-1H-pyrazol-1-yl)ethyl)acetamide], the IC50 fell in the range of 10 to 100 nM.

On to `C[C@@H](Cn1cnnn1)Oc1cc(-c2cnc(Nc3nc4ccccc4n3C)nc2)ccc1Cl` [Example 745, (S)-N-(5-(3-((1-(1H-tetrazol-1-yl)propan-2-yl)oxy)-4-chlorophenyl)pyrimidin-2-yl)-1-methyl-1H-benzo[d]imidazol-2-amine], for which the IC50 is not below 100 nM.

The compound `C[C@@H](Cn1cnnn1)Oc1cc(-c2cnc(Nc3cn(CC(F)F)nc3OCC(F)(F)F)nc2)ccc1C#N` [Example 767, (S)-2-((1-(1H-tetrazol-1-yl)propan-2-yl)oxy)-4-(2-((1-(2,2-difluoroethyl)-3-(2,2,2-trifluoroethoxy)-1H-pyrazol-4-yl)amino)pyrimidin-5-yl)benzonitrile] yielded an IC50 of less than 10 nM. On to `C[C@@H](Cn1cc(F)cn1)Oc1cc(-c2cnc(Nc3cn([C@H]4CC[C@@H](N5CCOCC5)CC4)nc3OCC(F)(F)F)nc2)ccc1C#N` [Example 829, 2-(((S)-1-(4-fluoro-1H-pyrazol-1-yl)propan-2-yl)oxy)-4-(2-((1-(cis-4-morpholinocyclohexyl)-3-(2,2,2-trifluoroethoxy)-1H-pyrazol-4-yl)amino)pyrimidin-5-yl)benzonitrile], for which the IC50 was in the range of 10 to 100 nM. Still for that read-out and setting: as for `C[C@@H](Cn1cnnn1)Oc1cc(-c2cnc(Nc3cn(CCN)nc3C(F)(F)F)nc2)ccc1Cl` [Example 877, (S)-5-(3-((1-(1H-tetrazol-1-yl)propan-2-yl)oxy)-4-chlorophenyl)-N-(1-(2-aminoethyl)-3-(trifluoromethyl)-1H-pyrazol-4-yl)pyrimidin-2-amine], the figure is less than 10 nM; as for `C[C@@H](Cn1cccn1)Oc1cc(-c2cnc(Nc3cn([C@H]4CC[C@H](N5CCOCC5)CC4)nc3C(F)(F)F)nc2)ccc1C#N` [Example 786, 2-(((S)-1-(1H-pyrazol-1-yl)propan-2-yl)oxy)-4-(2-((1-(trans-4-morpholinocyclohexyl)-3-(trifluoromethyl)-1H-pyrazol-4-yl)amino)pyrimidin-5-yl)benzonitrile], 10 to 100 nM; as for `C[C@@H](Cn1cnnn1)Oc1cc(-c2cnc(Nc3cn([C@H]4CC[C@H](N5CCC[C@H]5CO)CC4)nc3OC[C@@H]3CC3(F)F)nc2)ccc1Cl` [Example 871, ((S)-1-(trans-4-(4-((5-(3-(((S)-1-(1H-tetrazol-1-yl)propan-2-yl)oxy)-4-chlorophenyl)pyrimidin-2-yl)amino)-3-(((S)-2,2-difluorocyclopropyl)methoxy)-1H-pyrazol-1-yl)cyclohexyl)pyrrolidin-2-yl)methanol], less than 10 nM.

The assay is the same for the next values; noted with them: Table 2; activity class for CaMKIIδ.
In turn, `C[C@@H](Cn1cnnn1)Oc1cc(-c2cnc(Nc3cn(C4CCCNC4)nc3C(F)(F)F)nc2)ccc1Cl` (stereo partly drawn) [Example 600, 5-(3-(((S)-1-(1H-tetrazol-1-yl)propan-2-yl)oxy)-4-chlorophenyl)-N-(1-(piperidin-3-yl)-3-(trifluoromethyl)-1H-pyrazol-4-yl)pyrimidin-2-amine] displayed an IC50 of less than 10 nM.

`C[C@@H](Cn1cnnn1)Oc1cc(-c2cnc(Nc3cn(CC4CN(C5COC5)C4)nc3C(F)(F)F)nc2)ccc1Cl` [Example 598, (S)-5-(3-((1-(1H-tetrazol-1-yl)propan-2-yl)oxy)-4-chlorophenyl)-N-(1-((1-(oxetan-3-yl)azetidin-3-yl)methyl)-3-(trifluoromethyl)-1H-pyrazol-4-yl)pyrimidin-2-amine] yielded a 50% inhibitory concentration (IC50) of less than 10 nM. In the case of `C[C@@H](Cn1cnnn1)Oc1cc(-c2cnc(Nc3cn(C4CN(C(=O)OC(C)(C)C)C4)nc3C(F)(F)F)nc2)ccc1Cl` [Example 696, tert-butyl (S)-3-(4-((5-(3-((1-(1H-tetrazol-1-yl)propan-2-yl)oxy)-4-chlorophenyl)pyrimidin-2-yl)amino)-3-(trifluoromethyl)-1H-pyrazol-1-yl)azetidine-1-carboxylate], the IC50 lay within 10 to 100 nM. As for `C[C@@H](Cn1cnnn1)Oc1cc(-c2cnc(Nc3cn(CC4CCCN4C4COC4)nc3C(F)(F)F)nc2)ccc1Cl` (stereo partly drawn) [Example 609, 5-(3-(((S)-1-(1H-tetrazol-1-yl)propan-2-yl)oxy)-4-chlorophenyl)-N-(1-((1-(oxetan-3-yl)pyrrolidin-2-yl)methyl)-3-(trifluoromethyl)-1H-pyrazol-4-yl)pyrimidin-2-amine], the IC50 was 10 to 100 nM. On the same count and under the same terms, as for `C[C@@H](Cn1cnnn1)Oc1cc(-c2cnc(Nc3cn(C4CCN(C5CCOCC5)CC4)nc3C(F)(F)F)nc2)ccc1Cl` [Example 706, (S)-5-(3-((1-(1H-tetrazol-1-yl)propan-2-yl)oxy)-4-chlorophenyl)-N-(1-(1-(tetrahydro-2H-pyran-4-yl)piperidin-4-yl)-3-(trifluoromethyl)-1H-pyrazol-4-yl)pyrimidin-2-amine], the figure is less than 10 nM; as for `COc1ccc(N2CCN(C)CC2)cc1Nc1ncc(-c2ccc(Cl)c(O[C@@H](C)Cn3cnnn3)c2)cn1` [Example 584, (S)-5-(3-((1-(1H-tetrazol-1-yl)propan-2-yl)oxy)-4-chlorophenyl)-N-(2-methoxy-5-(4-methylpiperazin-1-yl)phenyl)pyrimidin-2-amine], less than 10 nM; as for `C[C@@H](Cn1cnnn1)Oc1cc(-c2cnc(Nc3cn(C4CCOCC4)nc3C(F)(F)F)nc2)ccc1Cl` [Example 645, (S)-5-(3-((1-(1H-tetrazol-1-yl)propan-2-yl)oxy)-4-chlorophenyl)-N-(1-(tetrahydro-2H-pyran-4-yl)-3-(trifluoromethyl)-1H-pyrazol-4-yl)pyrimidin-2-amine], 10 to 100 nM.
